Test results taken from US6613322B2, “Method for treating a subject suffering from conditions associated with an extracellular zinc sphingomyelinase” (The Trustees of Columbia University in the City of New York, priority 1997, dated 2003).
Each block holds one molecule with its values, some of them ahead of it.

How the values were obtained:
[1] = system: S-SMase secretion by HUVECs; assay: Cytokine regulation of S-SMase secretion by HUVECs (SMase activity in conditioned media); assay type: cell-based, human; details: 18 h, interferon-β 1000 units/ml, IL-4 10 ng/ml
Experimental: Conditioned media (FIG. 23A) and cell homogenates (FIG. 23B) from these cells were then assayed for SMase activity in the presence or absence of 0.1 mM ZnCl2, respectively.
The cells were then washed 3 times with PBS and incubated for 24 h in 1 ml fresh serum-free media containing 0.2%6 BSA. This 24-h conditioned medium was collected for SMase assays.
Harvesting of Cells and Conditioned Media—Following the incubations described above and in the figure legends, cells were placed on ice and the serum-free conditioned media was removed. The cells were washed two times with ice-cold 0.25 M sucrose and scraped into 0.3 ml and 3.0 ml of this sucrose solution per 35-mm and 100-mm dishes, respectively. Unless indicated otherwise, the scraped cells were disrupted by sonication on ice using three 5-second bursts (Branson 450 Sonifier), and the cellular homogenates were assayed for total protein by the method of Lowry et al. (22) and for SMase activity as described below. The conditioned media were spun at 800×g for 5 min to pellet any contaminating cells and concentrated six-fold using a Centriprep 30 (Amicon; Beverly, Mass.) concentrator (molecular weight cut off=30,000).
Typically, our assay reactions contained approximately 20 μg of cellular homogenate protein and a volume of conditioned media derived from a quantity of cells equivalent to approximately 50 μg of cellular protein.

S-SMase [2] = molecular target: T1, S-SMase (Homo sapiens, UniProt P17405); assay: Zn2+ activation of S-SMase in presence of zinc-metalloproteinase inhibitors; assay type: biochemical
T1 sequence (P17405 47-631): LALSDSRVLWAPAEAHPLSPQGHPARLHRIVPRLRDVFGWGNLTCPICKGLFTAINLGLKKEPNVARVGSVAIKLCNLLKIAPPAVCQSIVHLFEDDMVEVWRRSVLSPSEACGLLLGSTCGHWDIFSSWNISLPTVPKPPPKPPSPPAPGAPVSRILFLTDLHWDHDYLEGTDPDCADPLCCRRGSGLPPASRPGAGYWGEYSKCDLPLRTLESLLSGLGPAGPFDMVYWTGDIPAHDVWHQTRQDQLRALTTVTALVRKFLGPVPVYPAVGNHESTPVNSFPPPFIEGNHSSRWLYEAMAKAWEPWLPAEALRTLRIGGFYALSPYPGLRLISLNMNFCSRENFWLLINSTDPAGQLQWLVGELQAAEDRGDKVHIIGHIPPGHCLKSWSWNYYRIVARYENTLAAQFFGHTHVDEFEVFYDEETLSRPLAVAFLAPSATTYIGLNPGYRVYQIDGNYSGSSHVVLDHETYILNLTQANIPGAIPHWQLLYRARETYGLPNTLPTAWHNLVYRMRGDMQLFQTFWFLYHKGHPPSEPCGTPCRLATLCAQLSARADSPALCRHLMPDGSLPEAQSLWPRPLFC
Experimental: SMase Assay—As previously described (Schissel et al., 1996), the standard 200-μl assay mixture consisted of up to 40 μl of sample (conditioned media or homogenized cells; see above) and a volume of assay buffer (0.1 M sodium acetate, pH 5.0) to bring the volume to 160 μl. The reaction was initiated by the addition of 40 μl substrate (50 pmol [^3H]sphingomyelin) in 0.25 M sucrose containing 3% Triton X-100 (final concentration of Triton X-100 in the 200-μl assay mix=0.6%). When added, the final concentrations of EDTA and Zn^2+ were 5 mM and 0.1 mm, respectively, unless indicated otherwise. […] The ceramide spots were scraped and directly counted to quantify [^3H]ceramide. Typically, the assay reactions contained approximately 20 μg of cellular homogenate protein and a volume of conditioned media derived from a quantity of cells equivalent to approximately 50 μg of cellular protein.
One question was how L- and S-SMase acquire their apparent differences in zinc-dependency. One explanation would be that the secreted form requires a Zn^2+-dependent co-factor. Because many lysosomal enzymes undergo proteolytic activation (Hasilik, 1992), an obvious candidate for a Zn^2+-dependent co-factor would be a zinc-metalloproteinase. The results of five experiments, however, ruled out this possibility. First, Zn^2+-activated S-SMase can be subsequently inactivated by Zn^2+-chelation (see below); reversibility of Zn^2+-induced activation is not consistent with proteolytic activation. […] Third, mammalian zinc-metalloproteinases require Ca^2+ as well as Zn^2+, for activity (Reynolds, 1996), whereas Ca^2+ is not a requirement for the activation of S-SMase (Schissel et al., 1996).

S-SMase [3] = molecular target: T1, S-SMase; assay: S-SMase treatment of [3H]SM-LDL and [3H]SM-emulsions at pH 7.4; assay type: biochemical; parameters: endogenous in cells; host or cells: primary HUVEC, 24-h serum-free conditioned medium
Experimental: [^3H]SM-emulsions. [^3H]SM-emulsions with a lipid composition similar to human LDL were prepared as follows: 5.4 mg cholesteryl oleate, 0.48 mg triolein, 1.08 mg free cholesterol, 2.04 mg phosphatidylcholine, 0.96 mg sphingomyelin, and 50 μCi [N-palmitoyl-9,10^−3H]sphingomyelin were all added in chloroform to a sonication vial and the solvent completely evaporated by exposure to a stream of nitrogen, followed by the high vacuum of a lyophilizer. The dried lipids were resuspended in 3 mL of buffer containing 150 mM NaCl, 0.3 mM EDTA pH 7.4 and sonicated under a stream of argon at 40° C. until translucent (approximately 90 min) The sonicated material was then centrifuged twice at 15,000×g to pellet any titanium shed from the sonication probe. SM-rich emulsions were prepared exactly as above except that 1.2 mg of phosphatidylcholine and 1.8 mg of SM were used, and sonication time was increased to 120 min. [^3H]SM-emulsions were enriched with apo CIII based on the method of Ahmad et al. (Ahmad et al., 1986). Briefly, [^3H]SM-emulsions (0.4 mL; 182 nmol SM) were incubated with 200 μg apo CIII (22.5 nmol) for 2 h at 40° C. A portion of the emulsions were re-isolated from free ape CIII using ultrafiltration (Clavey et al., 1995) as follows: the crude emulsion-apo CIII mixture was diluted to 2 mL with buffer containing 150 mM NaCl, 0.3 mM EDTA pH 7.4 and ultra filtered and concentrated to 0.2 mL using a CENTRICON® 30 (molecular weight cut-off=30,000); the concentrated emulsions were then diluted to 2 mL and the process was repeated 5 times. [^3H]SM-emulsions run through the same enrichment and re-isolation protocols in the absence of apo CIII served as the control for the experiments in FIG. 11A.
S-SMase. The source of S-SMase was serum-free conditioned medium from DG44 CHO cells stably transfected with the human acid SMase cDNA (Schissel et al., 1996; Schuchman et al., 1991). […] Cells were plated in 100-mm dishes and cultured for 48 h in DMEM/FBS/PSG. The cells were then changed to low protein serum-free media for 12 h. washed 3 times with PBS, and finally incubated for 18 h in fresh serum-free media (6 mL per 100-mm dish) The “18-h conditioned medium” was then collected, centrifuged at 1000×g to pellet any cells and, except where indicated, ZnCl2 (final concentration=100 μM) was added to fully activate and stabilize S-SMase; this S-SMase-containing conditioned media was then used fresh to treat LDL and lipid emulsions.
S-SMase Treatment of LDL and Emulsions. The standard incubation mixture consisted of up to 50 μl of sample (LDL or emulsions). […] The ceramide spots were scraped and directly counted to quantify [^3H]ceramide. In all other samples ceramide was determined as described above.

L-SMase = molecular target: T2, L-SMase (Mus musculus, UniProt Q04519); assay: SMase assay of cell homogenate from J774 macrophages (SM micelles, pH 5.0); assay type: biochemical; details: 1,10-phenanthroline alone
T2 construct: endogenous in cells; host or cells: J774.A1 macrophages, sonicated cell homogenate
T2 sequence (Q04519 45-627): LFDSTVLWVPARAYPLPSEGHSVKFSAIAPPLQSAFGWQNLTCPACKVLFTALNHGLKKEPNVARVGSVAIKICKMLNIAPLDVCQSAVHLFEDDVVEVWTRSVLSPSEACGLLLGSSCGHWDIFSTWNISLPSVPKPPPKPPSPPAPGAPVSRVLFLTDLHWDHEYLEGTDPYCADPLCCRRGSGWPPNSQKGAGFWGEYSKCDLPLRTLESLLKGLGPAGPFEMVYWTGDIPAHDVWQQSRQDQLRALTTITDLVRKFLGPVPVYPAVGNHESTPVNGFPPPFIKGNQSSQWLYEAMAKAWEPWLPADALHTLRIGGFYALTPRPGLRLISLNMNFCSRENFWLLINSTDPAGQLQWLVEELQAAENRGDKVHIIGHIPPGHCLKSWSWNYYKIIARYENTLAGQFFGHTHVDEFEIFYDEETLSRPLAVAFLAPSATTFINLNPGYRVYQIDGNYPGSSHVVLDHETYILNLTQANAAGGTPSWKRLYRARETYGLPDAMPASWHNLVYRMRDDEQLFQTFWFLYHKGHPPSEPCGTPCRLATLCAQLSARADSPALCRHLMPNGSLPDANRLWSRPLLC
Experimental: FIGS. 14A-B. Sequential chelation and addition of Zn^2+ to secreted and intracellular SMase. Serum-free conditioned medium and a cell homogenate from J774 macrophages were prepared as described in “Experimental Procedures”. FIG. 14A, conditioned medium (CM) was assayed for SMase activity using 250 nM [^3H]sphingomyelin in Triton X-100 micelles in the presence of either 5 mM EDTA (first bar) or 0.1 mM ZnCl2 (second bar) for 1 h at 37° C. at pH 5.0. An aliquot of the Zn-activated conditioned medium was then incubated for 18 h in the presence of 10 mM EDTA, 10 mM 1,10-phenanthroline, and 0.6% Triton X-100 at 4° C. (EDTA PHNANTH) and then assayed for SMase activity (third bar). […]
(§1) SMase Assay—As previously described (Schissel et al., 1996), the standard 200-μl assay mixture consisted of up to 40 μl of sample (conditioned media or homogenized cells; see above) and a volume of assay buffer (0.1 M sodium acetate, pH 5.0) to bring the volume to 160 μl. […] The ceramide spots were scraped and directly counted to quantify [^3H]ceramide. Typically, the assay reactions contained approximately 20 μg of cellular homogenate protein and a volume of conditioned media derived from a quantity of cells equivalent to approximately 50 μg of cellular protein.

S-SMase [4] = molecular target: T3, S-SMase (Mus musculus, UniProt Q04519); assay: SMase assay of conditioned medium from J774 macrophages (SM micelles, pH 5.0); assay type: biochemical; details: 1,10-phenanthroline alone
T3 construct: endogenous in cells; host or cells: J774.A1 macrophages, serum-free conditioned medium
T3 sequence (Q04519 45-627): T2 sequence (Q04519 45-627)
Experimental: FIGS. 14A-B. Sequential chelation and addition of Zn^2+ to secreted and intracellular SMase. Serum-free conditioned medium and a cell homogenate from J774 macrophages were prepared as described in “Experimental Procedures”. FIG. 14A, conditioned medium (CM) was assayed for SMase activity using 250 nM [^3H]sphingomyelin in Triton X-100 micelles in the presence of either 5 mM EDTA (first bar) or 0.1 mM ZnCl2 (second bar) for 1 h at 37° C. at pH 5.0. An aliquot of the Zn-activated conditioned medium was then incubated for 18 h in the presence of 10 mM EDTA, 10 mM 1,10-phenanthroline, and 0.6% Triton X-100 at 4° C. (EDTA PHNANTH) and then assayed for SMase activity (third bar). After chelation, a portion of this partially inactivated conditioned medium was then dialyzed against zinc-containing buffer C (150 mM NaCl, 10 mM Tris-HCl, 1 mM ZnCl2, 0.6% Triton X-100, pH 7.4) for 18 h and then assayed for SMase activity (fourth bar). FIG. 14B, an aliquot of cell homogenate (Cell Homgn) was assayed for SMase activity in the presence of assay buffer alone (first bar), 5 mM EDTA (second bar), or 0.1 mM ZnCl2 (third bar). Another aliquot of cell homogenate was incubated for 8 h in the presence of 10 mM EDTA, 10 mm 1,10-phenanthroline, and 0.6% Triton X-100 (EDTA PHNANTH) at 4° C. and then assayed for SMase activity (fourth bar). An aliquot of this chelator-treated cell homogenate was then dialyzed against zinc-containing buffer C for 18 h and then assayed for SMase activity (fifth bar).
as §1

accumulation of S-SMase in conditioned media (qualitative) [1]: no effect
Molecule: IL-4: human recombinant interleukin-4

effect on ability of Zn2+ to activate S-SMase (S-SMase [2]): did not affect
Molecule: HS—CH2—R—CH(CH2—CH(CH3)2)—C)-Phe-Ala-NH2

S-SMase hydrolysis of [3H]SM-emulsions versus control emulsions (S-SMase [3]; emulsion-bound + free apo CIII): two-fold greater
S-SMase hydrolysis of [3H]SM-emulsions versus control emulsions (S-SMase [3]; emulsion-bound apo CIII only): approximately ten-fold more
Molecule: apo CIII: human native apolipoprotein CIII

effect on ability of Zn2+ to activate S-SMase (S-SMase [2]): did not affect
Molecule: HO—NH—CO—CH2—CH(CH2CH(CH3)2)—C)-Nal-Ala-NH—CH2—CH2—NH2

stimulation of S-SMase hydrolysis of [3H]SM-LDL (S-SMase [3]; exogenously added): 2-3 fold
Molecule: lysophosphatidylcholine

effect on ability of Zn2+ to activate S-SMase (S-SMase [2]): did not affect
Molecule: TIMP-1: tissue inhibitor of metalloproteinase-1, inhibitor of zinc-metalloproteinases

inhibition of L-SMase (L-SMase): does not inhibit
inhibition of S-SMase (S-SMase [4]): does not inhibit
Molecule: c1cnc2c(c1)ccc1cccnc12 [1,10-phenanthroline]

S-SMase hydrolysis of [3H]SM-LDL after treating the LDL with sPLA2 (S-SMase [3]; LDL pretreated 14 h at 37° C.): markedly enhanced
B1: sPLA2: human recombinant nonpancreatic soluble PLA2 (protein, UniProt P14555 21-144, looked up)
Phospholipase A2, membrane …: NLVNFHRMIKLTTGKEAALSYGFYGCHCGVGGRGSPKDATDRCCVTHDCCYKRLEKRGCGTKFLSYKFSNSGSRITCAKQDSCRSQLCECDKAAATCFARNKTTYNKKYQYYSNKHCRGSTPRC
